Tests used:
[1] = cited from earlier work
[2] = leucovorin vs levoleucovorin; cited from earlier work
[3] = test system: metastatic colorectal cancer tumors (Stadium IV CRC patients); assay: Clinical Study ISO-CC-005 (Phase I/IIa) safety extension cohorts and Follow-up study: tumour response by CT/MRI per RECIST 1.1; format: in vivo, human
Excerpt: As used herein, the term ORR shall refer to the Objective Response Rate, ie. the proportion of patients with reduction in tumor burden of a predefined amount. […] (Note: the appearance of one or more new lesions is also considered progression). […] Shortly after, applicant started two additional treatment groups in 2018 to generate more safety and efficacy data, i.e. the safety extension Cohort #18 (Treatment Arm #4) and Cohort #19 (Treatment Arm #6). The aim was to evaluate as many patients as possible from the additional treatment groups after a treatment period of 16 weeks or more. On 30 Sep. 2020, applicant announced response assessment data from the two safety extension cohorts (31 patients) treated for 16 weeks or longer (press release: 55% Overall Response Rate on the safety extension cohorts of the ISO-CC-005 Phase I/IIa study|BioSpace). […] These patients had been treated with the selected dose regimen of 120 mg/m2 arfolitixorin and 5-fluorouracil (5-FU) with either irinotecan or oxaliplatin ([…]). Out of the 31 patients, 17 were treated with an ARFOX regimen. Clinical Study ISO-CC-005 was an exploratory, Phase I/II multiple-centre study to be carried out in Stadium IV CRC patients. The study was designed to show clinical relevance for patients by characterizing the tolerability of four arfolitixorin dose levels (30, 60, 120, and 240 mg/m2) in six different standard clinical settings in the presence of fixed doses of 5-FU alone or in combination with either oxaliplatin, irinotecan, or oxaliplatin and bevacizumab. [table] The study was divided in the Main Study and the Follow-up Study. In the Main Study, patients received study treatment with arfolitixorin during eight weeks. Patients eligible for the Follow-up study could participate until reaching progress, but no longer than 18 months. […] The goal with the Dose-finding part of the Main Study was to establish the arfolitixorin dose level assessed as having the most favourable profile, i.e. the selected phase 2 dose (SP2D). […] Response was measured in short- and long-term assessments. […]

For Nc1nc(=O)c2c([nH]1)NC[C@H](CNc1ccc(C(=O)N[C@@H](CCC(=O)O)C(=O)O)cc1)N2C=O [1-LV], the metabolic conversion ([1]; In vitro) is listed as “rapidly converted to the biologically available methyl-tetrahydrofolate form” and the pharmacokinetic comparison [2] is listed as “pharmacokinetically identical”.

For Nc1nc2c(c(=O)[nH]1)N(C=O)C(CNc1ccc(C(=O)N[C@@H](CCC(=O)O)C(=O)O)cc1)CN2 (stereo partly shown) [Leucovorin, 5-formyl tetrahydrofolic acid], the pharmacokinetic comparison [2] is given as “pharmacokinetically identical”.

In the case of Nc1nc2c(c(=O)[nH]1)N1CN(c3ccc(C(=O)N[C@@H](CCC(=O)O)C(=O)O)cc3)C[C@H]1CN2 [[6R]-5,10-MTHF, [6R]-5,10-methylenetetrahydrofolate], the “progression of tumors between 8 and 16 weeks after initiating treatment” value ([3]; ISO-CC-005, treatment period of at least 8 weeks) is reported as “No statistically significant progression”, the “best ORR, patients diagnosed with LCRC or RCA” value ([3]; left-sided or rectal primary tumor (18 patients), 16 weeks and beyond, 120 mg/m2 arfolitixorin) is reported as over 60% and the “best ORR, only LCRC (without the rectal cases)” value ([3]; left-sided primary tumor (13 patients), 16 weeks and beyond, 120 mg/m2 arfolitixorin) is reported as about 70%.

For Nc1nc2c(c(=O)[nH]1)N(C=O)[C@H](CNc1ccc(C(=O)N[C@@H](CCC(=O)O)C(=O)O)cc1)CN2 [d-LV], the excretion ([1]; kidneys) is given as “slowly excreted by the kidneys”.

Reference: patent US20230102483A1, “[6R]-MTHF IN 5-FU BASED CHEMOTHERAPY OF LEFT-SIDED COLORECTAL CANCER” (Isofol Medical AB, priority 2021, published 2023)
